In the supplement of paper PMC3770661:
Structures can show the parent of a compound that is named as a salt. ± gives the uncertainty stated by the source.

Test system: HepG2 (L1.3 5'UTR promoter firefly luciferase reporter)
Assay: L1 promoter activity (FLuc/RLuc) relative to DMSO vehicle control (% of control); higher = stronger L1 promoter activation
Description: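 HepG2 cells in 96-well plates were cotransfected with pGL4.11-L1.3 5'UTR (firefly luciferase driven by the human L1.3 5'UTR promoter) and pGL4.74 (HSV-TK Renilla luciferase internal control), then treated with compound for 6 or 24 h. FLuc/RLuc ratio was normalised to the DMSO vehicle control (% of control); concentrations where RLuc fell below 50% of control were excluded (N.D.). Mean of at least two independent experiments in duplicate or quadruplicate.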

[1] = concentration (uM unless unit written): 100, treatment time: 6 h
[2] = concentration (uM unless unit written): 250, treatment time: 6 h
[3] = concentration (uM unless unit written): 500, treatment time: 6 h
[4] = concentration (uM unless unit written): 500, treatment time: 24 h
[5] = concentration (uM unless unit written): 25, treatment time: 6 h
[6] = concentration (uM unless unit written): 25, treatment time: 24 h
[7] = concentration (uM unless unit written): 50, treatment time: 6 h
[8] = concentration (uM unless unit written): 50, treatment time: 24 h
[9] = concentration (uM unless unit written): 100, treatment time: 24 h
[10] = concentration (uM unless unit written): 1000, treatment time: 6 h
[11] = concentration (uM unless unit written): 1000, treatment time: 24 h
[12] = concentration (uM unless unit written): 200, treatment time: 6 h
[13] = concentration (uM unless unit written): 5, treatment time: 6 h
[14] = concentration (uM unless unit written): 10, treatment time: 6 h
[15] = concentration (uM unless unit written): 10, treatment time: 24 h

SMILES: CS(=O)(=O)OCCCCOS(C)(=O)=O [Busulfan]
- L1 promoter activity [1]: 111 ± 33
- L1 promoter activity [2]: 119 ± 29
- L1 promoter activity [3]: 131 ± 39
- L1 promoter activity [4]: 122 ± 39

SMILES: CC(=O)N[C@H]1[C@@H](O[C@@H]2O[C@H](CC(O)[C@H]3O[C@@H](n4ccc(=O)[nH]c4=O)[C@H](O)[C@@H]3O)[C@H](O)[C@H](O)[C@H]2NC(=O)/C=C/CC(C)C)O[C@H](CO)[C@@H](N)[C@@H]1O (some centres not stated) [Tunicamycin]
- L1 promoter activity (concentration (uM unless unit written): 5 μg/mL, treatment time: 6 h): 76.6 ± 8.1
- L1 promoter activity (concentration (uM unless unit written): 5 μg/mL, treatment time: 24 h): 73.3 ± 3.2
- L1 promoter activity (concentration (uM unless unit written): 10 μg/mL, treatment time: 6 h): 66.6 ± 7.3
- L1 promoter activity (concentration (uM unless unit written): 10 μg/mL, treatment time: 24 h): 84.5 ± 11
- L1 promoter activity (concentration (uM unless unit written): 20 μg/mL, treatment time: 6 h): 63.5 ± 3.2
- L1 promoter activity (concentration (uM unless unit written): 20 μg/mL, treatment time: 24 h): 72.1 ± 7.7
- L1 promoter activity (concentration (uM unless unit written): 40 μg/mL, treatment time: 24 h): 75.8 ± 6.2

SMILES: C[C@]12CCC(=O)C=C1CC[C@@H]1[C@@H]2CC[C@@]2(C)[C@H]1CC[C@]2(C)O [Methyltestosterone]
- L1 promoter activity [5]: 94.7 ± 15
- L1 promoter activity [6]: 73.9 ± 15
- L1 promoter activity [7]: 108 ± 4.4
- L1 promoter activity [8]: 74.5 ± 14
- L1 promoter activity [1]: 98.5 ± 14
- L1 promoter activity [9]: 85.3 ± 3.9

SMILES: CC(C)=CC(=O)C=C(C)C [Phorone]
- L1 promoter activity [3]: 131 ± 16
- L1 promoter activity [4]: 118 ± 21
- L1 promoter activity [10]: 131 ± 6.7
- L1 promoter activity [11]: 118 ± 23

SMILES: CN1CCC(=C2c3ccccc3CC(=O)c3sccc32)CC1 [Ketotifen fumarate salt]
- L1 promoter activity [7]: 90.4 ± 6.5
- L1 promoter activity [8]: 89.9 ± 4.6
- L1 promoter activity [1]: 92.3 ± 7.8
- L1 promoter activity [9]: 83.7 ± 8
- L1 promoter activity [12]: 80.3 ± 4.5

SMILES: NC(=O)CI [Iodoacetamide]
- L1 promoter activity (concentration (uM unless unit written): 0.1, treatment time: 6 h): 97.4 ± 9
- L1 promoter activity (concentration (uM unless unit written): 0.1, treatment time: 24 h): 103 ± 11
- L1 promoter activity (concentration (uM unless unit written): 1, treatment time: 6 h): 101 ± 13
- L1 promoter activity (concentration (uM unless unit written): 1, treatment time: 24 h): 106 ± 16
- L1 promoter activity [13]: 117 ± 23
- L1 promoter activity [14]: 130 ± 27

SMILES: CCCc1nc2c(C)cc(-c3nc4ccccc4n3C)cc2n1Cc1ccc(-c2ccccc2C(=O)O)cc1 [Telmisartan]
- L1 promoter activity (concentration (uM unless unit written): 1.25, treatment time: 6 h): 104 ± 11
- L1 promoter activity (concentration (uM unless unit written): 1.25, treatment time: 24 h): 112 ± 8
- L1 promoter activity (concentration (uM unless unit written): 2.5, treatment time: 6 h): 105 ± 8.6
- L1 promoter activity (concentration (uM unless unit written): 2.5, treatment time: 24 h): 114 ± 9.7
- L1 promoter activity [13]: 115 ± 3.5
- L1 promoter activity (concentration (uM unless unit written): 5, treatment time: 24 h): 114 ± 9
- L1 promoter activity [14]: 119 ± 15
- L1 promoter activity [15]: 119 ± 3.6

SMILES: Clc1ccc(C(c2ccccc2Cl)C(Cl)Cl)cc1 (configuration not stated) [o.p'-Dichlorodiphenyldichloroethane]
- L1 promoter activity [7]: 97.3 ± 5
- L1 promoter activity [8]: 108 ± 5.8
- L1 promoter activity [1]: 77.5 ± 11

SMILES: CCCC(CCC)C(=O)O [Valproic acid]
- L1 promoter activity (concentration (uM unless unit written): 2500, treatment time: 6 h): 90.2 ± 25
- L1 promoter activity (concentration (uM unless unit written): 2500, treatment time: 24 h): 18.5 ± 1.6

SMILES: COC(=O)C1=C(C)NC(C)=C(C(=O)OC)C1c1ccccc1[N+](=O)[O-] [Nifedipine]
- L1 promoter activity [14]: 96.1 ± 10
- L1 promoter activity [15]: 104 ± 8.8
- L1 promoter activity [5]: 98.4 ± 2.3
- L1 promoter activity [6]: 126 ± 5.6
- L1 promoter activity [7]: 97.2 ± 12
- L1 promoter activity [8]: 104 ± 7
- L1 promoter activity [1]: 88.6 ± 24
- L1 promoter activity [9]: 91.2 ± 2.6

SMILES: NC1=NCC2c3ccccc3Cc3ccccc3N12 (configuration not stated) [Epinastine hydrochloride]
- L1 promoter activity [1]: 93.6 ± 15
- L1 promoter activity [9]: 85.9 ± 26
- L1 promoter activity [12]: 77.8 ± 12
- L1 promoter activity [3]: 27.1 ± 3.8

SMILES: CN(C)CCN(Cc1cccs1)c1ccccn1 [Methapyrilene]
- L1 promoter activity [2]: 97.7 ± 2.8
- L1 promoter activity (concentration (uM unless unit written): 250, treatment time: 24 h): 101 ± 25
- L1 promoter activity [3]: 86.6 ± 8.4
- L1 promoter activity [10]: 72.8 ± 12

SMILES: ClC(Cl)(Cl)Cl [Carbon tetrachloride]
- L1 promoter activity [3]: 99.7 ± 5.5
- L1 promoter activity [4]: 91.3 ± 3.6
- L1 promoter activity [10]: 111 ± 5.9
- L1 promoter activity [11]: 90.7 ± 12
- L1 promoter activity (concentration (uM unless unit written): 2000, treatment time: 6 h): 108 ± 8.1
- L1 promoter activity (concentration (uM unless unit written): 2000, treatment time: 24 h): 98.4 ± 8.2
